Marks after values point to notes of the source that are not given here.
Test: Measurement of logP values by HPLC on reversed phase columns (EEC directive 79/831 Annex V.A8)
Format: physicochemical

| logP (pH 2.7) | Compound | also measured |
| --- | --- | --- |
| 2.77 | C#CCN(c1cccc(Cl)c1)c1ncnc(-c2ccnc(C(=O)N(C)CCC#N)c2)n1 [B403] | – |
| 2.11 | O=C(O)c1cc(-c2ncnc(Nc3cccc(Cl)c3)n2)ccn1 [B404] | – |
| – | NC(=O)c1cc(-c2ncnc(Nc3cccc(C(F)F)c3)n2)ccn1 [B405] | logP (pH 7.8): 2.04^[c] |
| 2.55 | COC(=O)c1cc(-c2ncnc(Nc3cccc(C(F)F)c3)n2)ccn1 [B406] | – |
| 1.98 | O=C(O)c1cc(-c2ncnc(Nc3cccc(C(F)F)c3)n2)ccn1 [B407] | – |
| 2.57 | CCN(C)C(=O)c1cc(-c2ncnc(Nc3cccc(OC(F)F)c3)n2)ccn1 [B409] | – |
| 2.98 | CN(CC1CC1)C(=O)c1cc(-c2ncnc(Nc3cccc(OC(F)F)c3)n2)ccn1 [B410] | – |
| 2.98 | CN(CC1CC1)C(=O)c1cc(-c2ncnc(Nc3ccc(F)c(C(F)F)c3)n2)ccn1 [B411] | – |
| 2.34 | CON(C)C(=O)c1cc(-c2ncnc(Nc3cccc(C(F)F)c3)n2)ccn1 [B412] | – |
| 2.64 | CCN(OC)C(=O)c1cc(-c2ncnc(Nc3cccc(C(F)F)c3)n2)ccn1 [B413] | – |
| 2.88 | CCON(CC)C(=O)c1cc(-c2ncnc(Nc3cccc(C(F)F)c3)n2)ccn1 [B414] | – |
| 2.57 | CCON(C)C(=O)c1cc(-c2ncnc(Nc3cccc(C(F)F)c3)n2)ccn1 [B415] | – |
| 2.43 | COC(=O)c1cc(-c2ncnc(Nc3ccc(F)c(OC)c3)n2)ccn1 [B416] | – |
| 2.80 | COC(=O)c1cc(-c2ncnc(Nc3ccc(Cl)c(OC)c3)n2)ccn1 [B417] | – |
| 2.37 | COC(=O)c1cc(-c2ncnc(Nc3ccc(OC)c(F)c3)n2)ccn1 [B418] | – |
| 3.17 | COC(=O)c1cc(-c2ncnc(Nc3ccc(C)c(Cl)c3)n2)ccn1 [B419] | – |
| 2.86 | C#CCN(CC)C(=O)c1cc(-c2ncnc(Nc3cccc(C(F)F)c3)n2)ccn1 [B420] | – |
| 2.90 | COC(=O)c1cc(-c2ncnc(Nc3ccc(Br)c(OC)c3)n2)ccn1 [B421] | – |
| – | COC(=O)c1cc(-c2ncnc(Nc3ccc(OC)c(OC)c3)n2)ccn1 [B422] | logP (pH 7.8): 2.02^[c] |
| 2.66 | CN(C)C(=S)c1cc(-c2ncnc(Nc3cccc(C(F)F)c3)n2)ccn1 [B423] | – |
| 3.06 | CCN(C)C(=S)c1cc(-c2ncnc(Nc3cccc(OC(F)F)c3)n2)ccn1 [B424] | – |
| – | CCOC(=O)c1cc(-c2ccnc(Nc3ccc(OC)nc3)n2)ccn1 [Example A1, ethyl 4-{2-[(6-methoxypyridin-3-yl)amino]-pyrimidin-4-yl}pyridine-2-carboxylate] | chromatographic logP (pH 2.7): 1.1 |
| 2.2 | O=C(c1cc(-c2ccnc(Nc3ccnc(Cl)c3)n2)ccn1)N1CC=CCC1 [Example A2] | – |
| 1.6 | O=C(c1cc(Nc2nccc(-c3ccnc(C(=O)N4CC=CCC4)c3)n2)ccn1)N1CC=CCC1 [Example A3] | – |
| 1.1 | COCCN(C)C(=O)c1cc(Nc2nccc(-c3ccnc(C(=O)N(C)CCOC)c3)n2)ccn1 [Example A4] | – |

| logP (pH 2.7) | Compound | also measured |
| --- | --- | --- |
| 2.23 | O=C(c1cc(-c2ccnc(Nc3ccnc(Cl)c3)n2)ccn1)N1CCCCC1 [Example A5] | – |
| 1.63 | O=C(c1cc(Nc2nccc(-c3ccnc(C(=O)N4CCCCC4)c3)n2)ccn1)N1CCCCC1 [Example A6] | – |
| 2.08 | O=C(c1cc(-c2ccnc(Nc3ccnc(Cl)c3)n2)ccn1)N1CCCC1 [Example A7] | – |
| 1.37 | O=C(c1cc(Nc2nccc(-c3ccnc(C(=O)N4CCCC4)c3)n2)ccn1)N1CCCC1 [Example A8] | – |
| 1.69 | O=C(c1cc(-c2ccnc(Nc3ccnc(Cl)c3)n2)ccn1)N1CCCC(CO)C1 (stereo not drawn) [Example A9] | – |
| 1.84 | CCCN(CCO)C(=O)c1cc(-c2ccnc(Nc3ccnc(Cl)c3)n2)ccn1 [Example A10] | – |
| – | CCCN(CCC)C(=O)c1cc(-c2ccnc(Nc3ccnc(Cl)c3)n2)ccn1 [Example A11] | logP (pH 7.8): 2.88^[c] |
| 2.54 | CCCN(CCC)C(=O)c1cc(Nc2nccc(-c3ccnc(C(=O)N(CCC)CCC)c3)n2)ccn1 [Example A12] | – |
| 2.2 | CCCN(C)C(=O)c1cc(-c2ccnc(Nc3ccnc(Cl)c3)n2)ccn1 [Example A13] | – |
| 1.59 | CCCN(C)C(=O)c1cc(Nc2nccc(-c3ccnc(C(=O)N(C)CCC)c3)n2)ccn1 [Example A14] | – |
| 1.99 | CN(CC1CCCO1)C(=O)c1cc(-c2ccnc(Nc3ccnc(Cl)c3)n2)ccn1 (stereo not drawn) [Example A15] | – |
| 1.35 | CN(CC1CCCO1)C(=O)c1cc(Nc2nccc(-c3ccnc(C(=O)N(C)CC4CCCO4)c3)n2)ccn1 (stereo not drawn) [Example A16] | – |
| – | CCN(C)C(=O)c1cc(-c2ccnc(Nc3ccnc(Cl)c3)n2)ccn1 [Example A17, 4-{2-[(2-chloropyridin-4-yl)amino]pyrimidin-4-yl}-N-ethyl-N-methylpyridine-2-carboxamide] | chromatographic logP (pH 2.7): 1.91 |
| 2.22 | CCN(C)C(=O)c1cc(-c2ccnc(Nc3ccnc(C(F)(F)F)c3)n2)ccn1 [Example A18] | – |
| – | CCN(C)C(=O)c1cc(Nc2nccc(-c3ccnc(C(=O)N(C)CC)c3)n2)ccn1 [Example A19, N-ethyl-4-[2-({2-[ethyl(methyl)carbamoyl]pyridin-4-yl}amino)pyrimidin-4-yl]-N-methylpyridine-2-carboxamide] | chromatographic logP (pH 2.7): 1.19 |
| 2.33 | O=C(NCCCN1CCCCCC1=O)c1cc(-c2ccnc(Nc3ccnc(Cl)c3)n2)ccn1 [Example A20] | – |
| 2.33 | O=C(NCCCN1CCCCCC1=O)c1cc(Nc2nccc(-c3ccnc(C(=O)NCCCN4CCCCCC4=O)c3)n2)ccn1 [Example A21] | – |
| 1.69 | O=C(c1cc(-c2ccnc(Nc3ccnc(Cl)c3)n2)ccn1)N1CCOCC1 [Example A22] | – |
| 0.92 | O=C(c1cc(Nc2nccc(-c3ccnc(C(=O)N4CCOCC4)c3)n2)ccn1)N1CCOCC1 [Example A23] | – |
| 1.78 | CN(CCC#N)C(=O)c1cc(-c2ccnc(Nc3ccnc(Cl)c3)n2)ccn1 [Example A24] | – |
| 2.13 | C=CCN(C)C(=O)c1cc(-c2ccnc(Nc3ccnc(Cl)c3)n2)ccn1 [Example A25] | – |
| 2.51 | CCCN(CC)C(=O)c1cc(-c2ccnc(Nc3ccnc(Cl)c3)n2)ccn1 [Example A26] | – |
| 2.17 | CCN(CC)C(=O)c1cc(-c2ccnc(Nc3ccnc(Cl)c3)n2)ccn1 [Example A27] | – |
| 2.13 | CC(C)N(C)C(=O)c1cc(-c2ccnc(Nc3ccnc(Cl)c3)n2)ccn1 [Example A28] | – |
| 2.47 | CCC(C)N(C)C(=O)c1cc(-c2ccnc(Nc3ccnc(Cl)c3)n2)ccn1 (stereo not drawn) [Example A29] | – |

| logP (pH 2.7) | Compound | also measured |
| --- | --- | --- |
| 2.66 | CC(C)=CCN(C)C(=O)c1cc(-c2ccnc(Nc3ccnc(Cl)c3)n2)ccn1 [Example A30] | – |
| 2.28 | CN(CC1CC1)C(=O)c1cc(-c2ccnc(Nc3ccnc(Cl)c3)n2)ccn1 [Example A31] | – |
| 1.69 | CN(C)C(=O)c1cc(-c2ccnc(Nc3ccnc(Cl)c3)n2)ccn1 [Example A32] | – |
| 2.6 | CCN(CC)C(=O)c1cccc(-c2ccnc(Nc3ccnc(Cl)c3)n2)n1 [Example A33] | – |
| – | CN(C)C(=O)c1cccc(-c2ccnc(Nc3ccnc(Cl)c3)n2)n1 [Example A34] | logP (pH 2.3): 1.96^[b] |
| – | O=C(c1cccc(-c2ccnc(Nc3ccnc(Cl)c3)n2)n1)N1CCC1 [Example A35] | logP (pH 2.3): 2.21^[b] |
| – | CCN(C)C(=O)c1cccc(-c2ccnc(Nc3ccnc(Cl)c3)n2)n1 [Example A36] | logP (pH 2.3): 2.25^[b] |
| – | CCN(CC)C(=O)c1cc(-c2ccnc(Nc3ccc(C(C)(C)C)s3)n2)ccn1 [Example A39, 4-{2-[(5-tert-butyl-2-thienyl)amino]pyrimidin-4-yl}-N,N-diethylpyridine-2-carboxamide] | chromatographic logP (pH 2.7): 3.62 |
| – | CCN(CC)C(=O)c1cc(-c2nc(Nc3ccsc3)ncc2C)ccn1 [Example A41, N,N-diethyl-4-[5-methyl-2-(3-thienylamino)pyrimidin-4-yl]pyridine-2-carboxamide] | chromatographic logP (pH 2.7): 2.61 |
| 2.13 | Cc1ccc(Nc2nccc(-c3ccnc(C(=O)N(C)C)c3)n2)s1 [Example A48] | – |
| 2.13 | CN(C)C(=O)c1cc(-c2ncnc(Nc3cccc(F)c3)n2)ccn1 [Example B5] | – |
| 2.67 | CC(C)N(C)C(=O)c1cc(-c2ncnc(Nc3cccc(F)c3)n2)ccn1 [Example B8] | – |
| 2.26 | COCCN(C)C(=O)c1cc(-c2ncnc(Nc3cccc(F)c3)n2)ccn1 [Example B9] | – |
| 3.31 | CCN(CC)C(=S)c1cc(-c2ncnc(Nc3cccc(F)c3)n2)ccn1 [Example B11] | – |
| 3.42 | CN(CC1CC1)C(=S)c1cc(-c2ncnc(Nc3cccc(F)c3)n2)ccn1 [Example B12] | – |
| 3.32 | CCCN(C)C(=S)c1cc(-c2ncnc(Nc3cccc(F)c3)n2)ccn1 [Example B13] | – |
| 2.14 | CN(CCC#N)C(=O)c1cc(-c2ncnc(Nc3ccc(F)cc3)n2)ccn1 [Example B14] | – |
| 2.6 | CCN(CC)C(=O)c1cc(-c2ncnc(Nc3ccc(F)cc3)n2)ccn1 [Example B15] | – |
| 2.62 | CCCN(C)C(=O)c1cc(-c2ncnc(Nc3ccc(F)cc3)n2)ccn1 [Example B16] | – |
| 2.73 | CN(CC1CC1)C(=O)c1cc(-c2ncnc(Nc3ccc(F)cc3)n2)ccn1 [Example B17] | – |
| 2.02 | CN(C)C(=O)c1cc(-c2ncnc(Nc3ccc(F)cc3)n2)ccn1 [Example B18] | – |
| 2.92 | CC(C)CN(C)C(=O)c1cc(-c2ncnc(Nc3ccc(F)cc3)n2)ccn1 [Example B19] | – |
| 2.28 | CCN(C)C(=O)c1cc(-c2ncnc(Nc3ccc(F)cc3)n2)ccn1 [Example B20] | – |
| 2.55 | CC(C)N(C)C(=O)c1cc(-c2ncnc(Nc3ccc(F)cc3)n2)ccn1 [Example B21] | – |

| Compound | logP (pH 2.7) | also measured |
| --- | --- | --- |
| CN(CCC#N)C(=O)c1cc(-c2ncnc(Nc3cccc(F)c3)n2)ccn1 [Example B1] | 2.22 | – |
| CCN(CC)C(=O)c1cc(-c2ncnc(Nc3cccc(F)c3)n2)ccn1 [Example B2] | 2.72 | – |
| CCCN(C)C(=O)c1cc(-c2ncnc(Nc3cccc(F)c3)n2)ccn1 [Example B3] | 2.72 | – |
| CN(CC1CC1)C(=O)c1cc(-c2ncnc(Nc3cccc(F)c3)n2)ccn1 [Example B4] | 2.82 | – |
| CC(C)CN(C)C(=O)c1cc(-c2ncnc(Nc3cccc(F)c3)n2)ccn1 [Example B6] | 2.92 | – |
| CCN(C)C(=O)c1cc(-c2ncnc(Nc3cccc(F)c3)n2)ccn1 [Example B7] | 2.4 | – |
| CCN(C)C(=S)c1cc(-c2ncnc(Nc3cccc(F)c3)n2)ccn1 [Example B10] | 2.94 | – |
